Measurements from BindingDB's records for doi:10.1016/j.ejmech.2016.03.070 (China Medical University, 2016).

Legend:
[1] = Inhibition of full length human ABCB1 expressed in Flp-In-293 cells assessed as potentiation of paclitaxel-induced cytotoxicity by measuring paclitaxel IC50 at 10 uM after 72 hrs by SRB assay (Rvb = 644.78 +/- 2.6 nM)
[2] = Inhibition of ABCB1 in human KBVIN cells assessed as potentiation of vincristine-induced cytotoxicity by measuring vincristine IC50 at 10 uM after 72 hrs by SRB assay (Rvb = 2867.34 +/- 142.36 nM)
[3] = Inhibition of full length human ABCB1 expressed in Flp-In-293 cells assessed as potentiation of paclitaxel-induced cytotoxicity by measuring paclitaxel IC50 at 8 uM after 72 hrs by SRB assay (Rvb = 644.78 +/- 2.6 nM)
[4] = Inhibition of full length human ABCB1 expressed in Flp-In-293 cells assessed as potentiation of doxorubicin-induced cytotoxicity by measuring doxorubicin IC50 at 10 uM after 72 hrs by SRB assay (Rvb = 914.83 +/- 15.85 nM)
[5] = Inhibition of full length human ABCB1 expressed in Flp-In-293 cells assessed as potentiation of vincristine-induced cytotoxicity by measuring vincristine IC50 at 8 uM after 72 hrs by SRB assay (Rvb = 823.13 +/- 15.79 nM)
[6] = Inhibition of full length human ABCB1 expressed in Flp-In-293 cells assessed as potentiation of vincristine-induced cytotoxicity by measuring vincristine IC50 at 10 uM after 72 hrs by SRB assay (Rvb = 823.13 +/- 15.79 nM)
[7] = Inhibition of ABCB1 in human KBVIN cells assessed as potentiation of paclitaxel-induced cytotoxicity by measuring paclitaxel IC50 at 10 uM after 72 hrs by SRB assay (Rvb = 1196.09 +/- 44.8 nM)
[8] = Inhibition of full length human ABCB1 expressed in Flp-In-293 cells assessed as potentiation of doxorubicin-induced cytotoxicity by measuring doxorubicin IC50 at 8 uM after 72 hrs by SRB assay (Rvb = 914.83 +/- 15.85 nM)
[9] = Inhibition of ABCB1 in human KBVIN cells assessed as potentiation of paclitaxel-induced cytotoxicity by measuring paclitaxel IC50 at 8 uM after 72 hrs by SRB assay (Rvb = 1196.09 +/- 44.8 nM)
[10] = Inhibition of ABCB1 in human KBVIN cells assessed as potentiation of vincristine-induced cytotoxicity by measuring vincristine IC50 at 8 uM after 72 hrs by SRB assay (Rvb = 2867.34 +/- 142.36 nM)

| SMILES | IC50 [1] | IC50 [2] | IC50 [3] | IC50 [4] | IC50 [5] | IC50 [6] | IC50 [7] | IC50 [8] | IC50 [9] | IC50 [10] |
| --- | --- | --- | --- | --- | --- | --- | --- | --- | --- | --- |
| Cc1cccc(-c2coc3c(c(O)cc4occ(-c5cccc(C)c5)c(=O)c43)c2=O)c1 | 40 nM | 96 nM | 60 nM | 586 nM | 53 nM | 39 nM | 52 nM | 664 nM | 63 nM | 390 nM |
| COc1ccc(-c2coc3c(c(O)cc4occ(-c5ccc(OC)cc5)c(=O)c43)c2=O)cc1 | 79 nM |  | 303 nM | 544 nM | 577 nM | 500 nM |  | 576 nM |  |  |
| COc1ccc(-c2coc3c(c(O)cc4occ(-c5ccc(OC)c(OC)c5)c(=O)c43)c2=O)cc1OC | 68 nM |  | 73 nM | 594 nM | 203 nM | 85 nM |  | 597 nM |  |  |
